Reference: paper PMC7413516, “Antidepressant-like activity and safety profile evaluation of 1H-imidazo[2,1-f]purine-2,4(3H,8H)-dione derivatives as 5-HT1A receptor partial agonists” (PLoS ONE, 2020)
Where two headings read alike, the source gives them in different places.

Assay: Pharmacokinetic study in mice, plasma and brain structures, LC/MS/MS
Type: in vivo, Swiss albino mice
Conditions: Swiss albino, mouse, ip, 0.625 mg/kg i.p.
Procedure: Blood samples from the Swiss albino mice were collected at 0 (pre-dose), 5, 15, 30, 60, 120, 240 and 480 min after a compound administration. The blood samples and brain structures were collected under general anesthesia induced by i.p. injection of 50 mg/kg ketamine plus 8 mg/kg xylazine. The blood samples were taken into heparinized tubes, immediately centrifuged at 1000 × g for 10 min, and plasma was collected. The plasma samples and brain structures were immediately frozen at -30°C and -80°C, respectively.
The plasma and tissue sample pretreatment procedure involved acetonitrile precipitation. A 5 μL aliquot of the IS working solution (100 ng/mL) was added to 50 μL of the collected mouse plasma sample, which was then vortex-mixed for 10 seconds. Thereafter, 200 μL of acetonitrile was added, vortexed during 20 min, and then centrifuged (1000 × g, 10 min). The supernatant (100 μL) was then transferred to insert placed in an autosampler vial, and a 10 μL volume of this was injected onto the HPLC column. Tissue samples were thawed before use, and whole hippocampus, striatum and frontal cortex were weighted and placed in a glass mortar and pestle tissue grinder and homogenized with an appropriate amount of phosphate buffer (pH 7.4) in 1:5 ratio. Afterward, 50 μL of tissue homogenates were transferred to new Eppendorf tubes and spiked with 5 μL of the internal standard working solution. All samples were stored on ice during the preparation process. This was followed by procedures like those described above.
The LC/ESI-MS/MS experiments were performed on an Applied Biosystems/MDS Sciex (Concord, Ontario, Canada) API 2000 triple quadrupole mass spectrometer equipped with an electrospray (ESI) ionization interface. This instrument was coupled to an Agilent 1100 (Agilent Technologies, Waldbronn, Germany) LC system. Data acquisition and processing were accomplished using Sciex Analyst 1.4.2 data collection and integration software.
An XBridge C18 (2.1 x 30 mm, 3.5 μm) analytical column (Waters, Milford, Massachusetts, USA) was used for compound separation. The temperatures of the column thermostat and the autosampler were set at 25°C and 10°C, respectively. The mobile phase consisted of a mixture of acetonitrile with addition of 0.1% formic acid (solvent A) and water with addition of 0.1% formic acid (solvent B) and was set at a flow rate of 0.6 mL/min. Starting amount of solvent A is 10%, isocratic elution from 0 to 3 min, and then gradient up to 90% of solvent A, and maintained to 10 min, and then gradient down to 10% of solvent A, and maintained to 15 min.
The ion source parameters were as follows: ion spray voltage: 5500 V; nebulizer gas (gas 1): 20 psi; turbo gas (gas 2): 25 psi; temperature of the heated nebulizer: 400°C; curtain gas: 40 psi; collision gas: 6 psi. Mass spectra were acquired by SRM with precursor/predominant product ion transitions for each analyte. The mass spectral Q1→Q3 transitions monitored for AZ-853, AZ-861 and for IS (nebivolol), were m/z 453.9→235.1; 504.3→285.1 and 406.2→151.1, respectively. The peak widths of precursor and product ions were set to 0.7 full width half-height. Quantification was done via peak area ratio.
Pharmacokinetic parameters were calculated by a non-compartmental approach from the average concentration values, using Phoenix WinNonlin software (Certara, Princeton, NJ 08540 USA). First order elimination rate constant (λz) was calculated by linear regression of time versus log concentration. Next, the area under the mean serum and tissue concentration versus time curve (AUC0→t) was estimated using the log-linear trapezoidal rule (1), where Ci is the plasma concentration measured at t1.
AUC0→t=∑i=1n((Ci+Ci+1)/2)∙(ti+1−ti). (1)
Area under the first-moment curve (AUMC0→t) was estimated by calculation of the total area under the first-moment curve using the Eq (2), where Ci is the plasma concentration measured at t1. AUMC0→t=∑i=1n((ti∙Ci+ti+1∙Ci+1)/2)∙(ti+1−ti). […]

[1] = hippocampus, 0.625 mg/kg, read-out: Concentration, hippocampus (individual animals)
[2] = hippocampus, 0.625 mg/kg, read-out: Concentration, hippocampus (Mean)
[3] = plasma, 0.625 mg/kg, read-out: Concentration, plasma (Mean)
[4] = plasma, 0.625 mg/kg, read-out: Concentration, plasma (individual animals)
[5] = striatum, 0.625 mg/kg, read-out: Concentration, striatum (Mean)
[6] = striatum, 0.625 mg/kg, read-out: Concentration, striatum (individual animals)

concentration at 5 min [1]: 205 ng/mL | concentration at 15 min [2]: 271 ng/mL | concentration at 15 min [1]: 228 ng/mL | concentration at 30 min [2]: 125 ng/mL | concentration at 30 min [1]: 125 ng/mL | concentration at 60 min [2]: 44.3 ng/mL | concentration at 60 min [1]: 38.9 ng/mL | concentration at 120 min [2]: 12.6 ng/mL | concentration at 120 min [1]: 14.1 ng/mL | concentration at 240 min [2]: 8.83 ng/mL | concentration at 240 min [1]: 9.85 ng/mL | concentration at 480 min [2]: 2.07 ng/mL | Cmax (hippocampus, 0.625 mg/kg, read-out: Cmax, hippocampus): 272 ng/g | Tmax (hippocampus, 0.625 mg/kg, read-out: tmax, hippocampus (converted)): 15 min | CL/F (plasma): 570 mL/min/kg | AUC(0-t) (plasma, read-out: AUC0→t, plasma (converted)): 17.7 ng·h/mL | MRT (plasma, read-out: MRT, plasma (converted)): 85.8 min | concentration at 5 min [3]: 23.1 ng/mL | concentration at 5 min [4]: 25.4 ng/mL | concentration at 15 min [3]: 13.4 ng/mL | concentration at 15 min [4]: 12.2 ng/mL | concentration at 30 min [3]: 7.76 ng/mL | concentration at 30 min [4]: 9.11 ng/mL | concentration at 60 min [3]: 1.78 ng/mL | concentration at 120 min [3]: 4.08 ng/mL | concentration at 120 min [4]: 3.22 ng/mL | concentration at 240 min [3]: 0.38 ng/mL | concentration at 480 min [3]: 0.29 ng/mL | concentration at 480 min [4]: 0.25 ng/mL | Vd/F (plasma, 0.625 mg/kg, plasma, read-out: Vd/F): > 67 L/kg | Cmax (plasma, 0.625 mg/kg, read-out: Cmax, plasma): 23.1 ± 16 ng/mL | Tmax (plasma, 0.625 mg/kg, read-out: tmax, plasma): ≤ 5 min | Kp (striatum, ratio of AUC values, read-out: Brain structure-to-plasma concentration ratio, striatum (S/P)): 19.9 | AUC(0-t) (striatum, read-out: AUC0→t, striatum (converted)): 352 ng·h/mL | MRT (striatum, read-out: MRT, striatum (converted)): 56.3 min | concentration at 5 min [5]: 337 ng/mL | concentration at 5 min [6]: 290 ng/mL | concentration at 15 min [5]: 404 ng/mL | concentration at 15 min [6]: 398 ng/mL | concentration at 30 min [5]: 262 ng/mL | concentration at 30 min [6]: 307 ng/mL | concentration at 60 min [5]: 65.5 ng/mL | concentration at 60 min [6]: 78.3 ng/mL | concentration at 120 min [5]: 40.9 ng/mL | concentration at 120 min [6]: 48.7 ng/mL | concentration at 240 min [5]: 5.58 ng/mL | concentration at 480 min [5]: 1.4 ng/mL | Cmax (striatum, 0.625 mg/kg, read-out: Cmax, striatum): 404 ng/g | Tmax (striatum, 0.625 mg/kg, read-out: tmax, striatum (converted)): 15 min
SMILES: Cn1c(=O)c2c(nc3n(CCCCN4CCN(c5ccccc5F)CC4)ccn23)n(C)c1=O [AZ-853, 8-(4-(4-(2-fluorophenyl)piperazin-1-yl)butyl)-1,3-dimethyl-1H-imidazo[2,1-f]purine-2,4(3H,8H)-dione]
